Common to all, as to experiment: relative viability (nuclei count vs DMSO), 5 days (fraction); higher = more cells survive
Compound in the test “Seliciclib + Decitabine”: CC[C@H](CO)Nc1nc(NCc2ccccc2)c2ncn(C(C)C)c2n1 [Seliciclib] + Nc1ncn([C@H]2C[C@H](O)[C@@H](CO)O2)c(=O)n1 [Decitabine] (partner 2 µM)
The gist of the method:
(§1)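 Relative viability was taken as the ratio of nuclei in treated wells to nuclei in vehicle wells. Lung cancer cell lines in 1536-well plates received compounds by pin tool one day after seeding, either one drug alone or a fixed anchor-drug dose plus five library-drug doses (not always all listed) in √10 steps. Nuclei were counted on 4× images after 5 days of treatment, and values are medians of duplicate plates.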

Compound in the test “Seliciclib + Phenformin”: CC[C@H](CO)Nc1nc(NCc2ccccc2)c2ncn(C(C)C)c2n1 [Seliciclib] + N=C(N)NC(=N)NCCc1ccccc1 [Phenformin] (partner 250 µM)
The gist of the method: as §1

Compound in the test “Seliciclib + Palbociclib”: CC[C@H](CO)Nc1nc(NCc2ccccc2)c2ncn(C(C)C)c2n1 [Seliciclib] + CC(=O)c1c(C)c2cnc(Nc3ccc(N4CCNCC4)cn3)nc2n(C2CCCC2)c1=O [Palbociclib] (partner 0.5 µM)
The gist of the method:
as §1

Compound in the test “Seliciclib + Pictilisib”: CC[C@H](CO)Nc1nc(NCc2ccccc2)c2ncn(C(C)C)c2n1 [Seliciclib] + CS(=O)(=O)N1CCN(Cc2cc3nc(-c4cccc5[nH]ncc45)nc(N4CCOCC4)c3s2)CC1 [Pictilisib] (partner 1 µM)
The gist of the method: as §1

For A-427, the relative viability with Seliciclib + Decitabine (first compound 0.08 µM) was found to be 0.606; with Seliciclib + Decitabine (first compound 0.253 µM), 0.521; in the test with Seliciclib + Decitabine (first compound 0.8 µM), 0.612; with Seliciclib + Decitabine (first compound 2.53 µM) it was 0.52; with Seliciclib + Decitabine (first compound 8 µM) it was 0.589; with Seliciclib + Phenformin (first compound 0.08 µM), 0.325. Also, the relative viability with Seliciclib + Phenformin (first compound 0.253 µM) worked out at 0.354; with Seliciclib + Phenformin (first compound 0.8 µM), 0.307; with Seliciclib + Phenformin (first compound 2.53 µM), 0.276; with Seliciclib + Phenformin (first compound 8 µM), 0.295; with Seliciclib + Palbociclib (first compound 0.08 µM), 0.488; with Seliciclib + Palbociclib (first compound 0.253 µM), 0.55. For the same cell line, the relative viability in the test with Seliciclib + Palbociclib (first compound 0.8 µM) came out at 0.504; in the test with Seliciclib + Palbociclib (first compound 2.53 µM), 0.468; with Seliciclib + Palbociclib (first compound 8 µM) it was 0.427; with Seliciclib + Pictilisib (first compound 0.08 µM) it was 0.753; in the test with Seliciclib + Pictilisib (first compound 0.253 µM), 0.737; in the test with Seliciclib + Pictilisib (first compound 0.8 µM), 0.646. Further, the results for the relative viability with Seliciclib + Pictilisib (first compound 2.53 µM) and with Seliciclib + Pictilisib (first compound 8 µM) were 0.688 and 0.695, respectively.
For LCLC-97TM1, the relative viability was found to be 0.237 with Seliciclib + Decitabine (first compound 0.08 µM); 0.187 with Seliciclib + Decitabine (first compound 0.253 µM); 0.189 in the test with Seliciclib + Decitabine (first compound 0.8 µM); 0.231 in the test with Seliciclib + Decitabine (first compound 2.53 µM); 0.201 with Seliciclib + Decitabine (first compound 8 µM); 0.467 with Seliciclib + Phenformin (first compound 0.08 µM). Also, the relative viability in the test with Seliciclib + Phenformin (first compound 0.253 µM) was determined as 0.354; in the test with Seliciclib + Phenformin (first compound 0.8 µM), 0.493; with Seliciclib + Phenformin (first compound 2.53 µM), 0.138; with Seliciclib + Phenformin (first compound 8 µM) it was 0.381; with Seliciclib + Palbociclib (first compound 0.08 µM), 0.219; in the test with Seliciclib + Palbociclib (first compound 0.253 µM) it was 0.242. The relative viability was determined as 0.186 with Seliciclib + Palbociclib (first compound 0.8 µM); 0.184 with Seliciclib + Palbociclib (first compound 2.53 µM); 0.108 with Seliciclib + Palbociclib (first compound 8 µM); 0.281 in the test with Seliciclib + Pictilisib (first compound 0.08 µM); 0.168 with Seliciclib + Pictilisib (first compound 0.253 µM); 0.17 with Seliciclib + Pictilisib (first compound 0.8 µM). For the same cell line, the relative viability with Seliciclib + Pictilisib (first compound 8 µM) came to 0.142.
Regarding HCC-15, the relative viability worked out at 0.685 with Seliciclib + Decitabine (first compound 0.08 µM); 0.814 in the test with Seliciclib + Decitabine (first compound 0.253 µM); 0.629 with Seliciclib + Decitabine (first compound 0.8 µM); 0.457 with Seliciclib + Decitabine (first compound 2.53 µM); 0.527 with Seliciclib + Decitabine (first compound 8 µM); 0.491 in the test with Seliciclib + Phenformin (first compound 0.08 µM). The relative viability with Seliciclib + Phenformin (first compound 0.253 µM) turned out to be 0.519; in the test with Seliciclib + Phenformin (first compound 0.8 µM) it was 0.419; in the test with Seliciclib + Phenformin (first compound 2.53 µM) it was 0.383; in the test with Seliciclib + Phenformin (first compound 8 µM), 0.352; in the test with Seliciclib + Palbociclib (first compound 0.08 µM), 0.846; with Seliciclib + Palbociclib (first compound 0.253 µM), 0.782. In addition, the relative viability was 0.666 with Seliciclib + Palbociclib (first compound 0.8 µM); 0.726 with Seliciclib + Palbociclib (first compound 2.53 µM); 0.493 with Seliciclib + Palbociclib (first compound 8 µM); 0.705 with Seliciclib + Pictilisib (first compound 0.08 µM); 0.857 with Seliciclib + Pictilisib (first compound 0.253 µM); 0.473 in the test with Seliciclib + Pictilisib (first compound 0.8 µM). Moreover, the relative viability is 0.791 with Seliciclib + Pictilisib (first compound 2.53 µM) and 0.548 in the test with Seliciclib + Pictilisib (first compound 8 µM).
NCI-H647: the relative viability with Seliciclib + Decitabine (first compound 0.08 µM) was found to be 0.314; in the test with Seliciclib + Decitabine (first compound 0.253 µM), 0.235; in the test with Seliciclib + Decitabine (first compound 0.8 µM), 0.562; with Seliciclib + Decitabine (first compound 2.53 µM), 0.453; with Seliciclib + Decitabine (first compound 8 µM), 0.452; with Seliciclib + Phenformin (first compound 0.08 µM) it was 0.515. In addition, the relative viability with Seliciclib + Phenformin (first compound 0.8 µM) was 0.537; in the test with Seliciclib + Phenformin (first compound 2.53 µM) it was 0.603; with Seliciclib + Phenformin (first compound 8 µM), 0.409; in the test with Seliciclib + Palbociclib (first compound 0.08 µM), 0.321; with Seliciclib + Palbociclib (first compound 0.253 µM), 0.188; with Seliciclib + Palbociclib (first compound 0.8 µM), 0.395. Further, the relative viability came to 0.296 with Seliciclib + Palbociclib (first compound 2.53 µM); 0.216 with Seliciclib + Palbociclib (first compound 8 µM); 0.367 in the test with Seliciclib + Pictilisib (first compound 0.08 µM); 0.45 with Seliciclib + Pictilisib (first compound 0.253 µM); 0.25 with Seliciclib + Pictilisib (first compound 0.8 µM); 0.296 with Seliciclib + Pictilisib (first compound 2.53 µM). In addition, in the test with Seliciclib + Pictilisib (first compound 8 µM), the relative viability came to 0.248.
Take SW 1573: the relative viability with Seliciclib + Decitabine (first compound 0.08 µM) turned out to be 0.497; with Seliciclib + Decitabine (first compound 0.253 µM), 0.515; with Seliciclib + Decitabine (first compound 0.8 µM) it was 0.474; in the test with Seliciclib + Decitabine (first compound 2.53 µM), 0.408; with Seliciclib + Decitabine (first compound 8 µM), 0.663; with Seliciclib + Phenformin (first compound 0.08 µM), 0.373. The relative viability stood at 0.24 in the test with Seliciclib + Phenformin (first compound 0.253 µM); 0.346 with Seliciclib + Phenformin (first compound 0.8 µM); 0.384 with Seliciclib + Phenformin (first compound 2.53 µM); 0.311 with Seliciclib + Phenformin (first compound 8 µM); 0.332 with Seliciclib + Palbociclib (first compound 0.08 µM); 0.315 with Seliciclib + Palbociclib (first compound 0.253 µM). Also, the relative viability with Seliciclib + Palbociclib (first compound 0.8 µM) was 0.368; with Seliciclib + Palbociclib (first compound 2.53 µM), 0.361; with Seliciclib + Palbociclib (first compound 8 µM), 0.292; with Seliciclib + Pictilisib (first compound 0.08 µM) it was 0.494; with Seliciclib + Pictilisib (first compound 0.253 µM), 0.516; with Seliciclib + Pictilisib (first compound 0.8 µM), 0.428. For the same cell line, the relative viability came out at 0.516 with Seliciclib + Pictilisib (first compound 2.53 µM) and 0.474 with Seliciclib + Pictilisib (first compound 8 µM).
As for NCI-H1651, the relative viability in the test with Seliciclib + Decitabine (first compound 0.08 µM) turned out to be 0.553; with Seliciclib + Decitabine (first compound 0.253 µM) it was 0.6; with Seliciclib + Decitabine (first compound 0.8 µM), 0.65; in the test with Seliciclib + Decitabine (first compound 2.53 µM), 0.51; with Seliciclib + Decitabine (first compound 8 µM) it was 0.592; with Seliciclib + Phenformin (first compound 0.08 µM), 0.339. Also, the relative viability with Seliciclib + Phenformin (first compound 0.253 µM) came out at 0.366; with Seliciclib + Phenformin (first compound 0.8 µM), 0.317; with Seliciclib + Phenformin (first compound 2.53 µM), 0.277; with Seliciclib + Phenformin (first compound 8 µM) it was 0.249; in the test with Seliciclib + Palbociclib (first compound 0.08 µM) it was 0.51; with Seliciclib + Palbociclib (first compound 0.253 µM), 0.512. The relative viability with Seliciclib + Palbociclib (first compound 0.8 µM) is 0.502; with Seliciclib + Palbociclib (first compound 2.53 µM), 0.436; in the test with Seliciclib + Palbociclib (first compound 8 µM), 0.411; in the test with Seliciclib + Pictilisib (first compound 0.08 µM) it was 0.484; in the test with Seliciclib + Pictilisib (first compound 0.253 µM), 0.636; with Seliciclib + Pictilisib (first compound 0.8 µM), 0.563. The relative viability came to 0.45 with Seliciclib + Pictilisib (first compound 2.53 µM) and 0.487 with Seliciclib + Pictilisib (first compound 8 µM).
With NCI-H1792, the relative viability with Seliciclib + Decitabine (first compound 0.08 µM) came out at 0.45; with Seliciclib + Decitabine (first compound 0.253 µM), 0.506; with Seliciclib + Decitabine (first compound 0.8 µM), 0.608; with Seliciclib + Decitabine (first compound 8 µM) it was 0.556; with Seliciclib + Phenformin (first compound 0.08 µM), 0.421; in the test with Seliciclib + Phenformin (first compound 0.253 µM) it was 0.308. The relative viability in the test with Seliciclib + Phenformin (first compound 0.8 µM) was found to be 0.306; with Seliciclib + Phenformin (first compound 8 µM), 0.329; with Seliciclib + Palbociclib (first compound 0.08 µM) it was 0.655; with Seliciclib + Palbociclib (first compound 0.253 µM), 0.717; with Seliciclib + Palbociclib (first compound 0.8 µM), 0.613; with Seliciclib + Palbociclib (first compound 8 µM), 0.566. In addition, the relative viability in the test with Seliciclib + Pictilisib (first compound 0.08 µM) came to 0.233; in the test with Seliciclib + Pictilisib (first compound 0.253 µM), 0.313; with Seliciclib + Pictilisib (first compound 0.8 µM), 0.273; in the test with Seliciclib + Pictilisib (first compound 2.53 µM), 0.285; with Seliciclib + Pictilisib (first compound 8 µM), 0.274.
